Results published in US11339183B2, “Phosphate and phosphonate derivatives of 7-amino-5-thio-thiazolo[4,5-d]pyrimidines and their use in treating conditions associated with elevated levels of CX3CR1 and/or CX3CL1” (KANCERA AB, priority 2018, dated 2022).
Structures can show the parent of a compound that is named as a salt. Blank lines part the entries; values can stand above or below the molecule they belong to.

Columns and labels:
[1] = Further stability studies: aqueous solutions stored 60 days at room temperature and/or 40° C. (HPLC-MS); assay type: physicochemical
Protocol: Aqueous solutions of several of the example compounds were prepared at concentrations of 1.2 mg/mL (10 mg/mL for Example 1 (no salt)) according to the following procedures. • i) Examples 1 b, 2h and 3 (diammonium salts) were dissolved in pure water. • ii) Examples 1d (diammonium salt) and 1n (monoammonium salt) were suspended in water and Na2HPO3 was added until all of the compound was in solution. • iii) Examples 1q, 4f an 4g (no salts) were dissolved in water with added DMSO (100 μL) and (2-hydroxypropyl)-β-cyclodextrin was added until all of the compound was in solution.
The stability of the compounds to long-term storage in aqueous solution at room temperature and/or 40° C. was then assessed by analysis of the solution by HPLC-MS after 60 days.

[2] = Comparative kinetic solubility in phosphate buffer pH 7.4 (HPLC-UV); assay type: physicochemical; details: aqueous buffer, kinetic from dmso stock, nominal 250 μM in 50 mM phosphate buffer pH 7.4, agitated 1 hour, filtered
Protocol: Samples of the compound of Example 1 and (2R)-2-[(2-amino-5-{[(1S)-1-phenylethyl]sulfanyl}-[1,3] thiazolo[4,5-d]pyrimidin-7-yl)amino]-4-methylpentan-1-ol. HCl (compound A) were diluted to a nominal concentration of 250 μM in 50 mM phosphate buffer pH 7.4 then agitated for 1 hour and filtered.
Standard solutions of the two compounds at concentrations of 25 and 250 μM in 50:50 acetontrile:water were prepared.
The solutions were then analysed by reverse phase HPLC with UV-detection, and solubility was determined by the ratio of the sample peaks to the standard curve.

[3] = Plasma concentration (AUC of plasma Compound A) in mice after intravenous and peroral administration; assay type: in vivo; details: blood 0.083-24 hours; for AUC: male, CD1, mouse, plasma
Protocol: (§1) A peroral dosing solution of Compound A (12 mg/mL) in 30% HP-β-CD in 10 mM Na2PO4 and an intravenous dosing solution of Compound A (2.5 mg/mL) in 30% HP-β-CD in 10 mM Na2PO4 in DPBS were prepared. The intravenous dosing solution was administered to male CD1 mice (weight 28-30 g) via intravenous injection (25 mg/kg) and the peroral dosing solution was administered to male CD1 mice (weight 28-30 g) via oral gavage (120 mg/kg).
Blood was collected from the animals at time points of 0.083, 0.25, 0.5, 1, 2, 4, 6, 12 and 24 hours and analysed for blood plasma concentration, and the data generated were used to calculate the area under the curve (AUC) values shown in Table 5.
as §1, with “Compound A HCl salt (12 mg/mL)” for “Compound A (12 mg/mL)”, “Compound A HCl salt (2.5 mg/mL)” for “Compound A (2.5 mg/mL)”, “oral gavage (125 mg/kg).” for “oral gavage (120 mg/kg).”
A peroral dosing solution of Example 1 disodium salt in water (15.4 mg/mL) at a pH of 7.18 and an intravenous dosing solution of Example 1 disodium salt in water (6.4 mg/mL) at a pH of 7.11 were prepared by dissolving Example 1 diammonium salt in water and adjusting the pH with 0.1M NaOH solution. The intravenous dosing solution was administered to male CD1 mice (weight 24-25 g) via tail injection (32 mg/kg) and the peroral dosing solution was administered to male CD1 mice (weight 24-25 g) via oral gavage (154 mg/kg).

[4] = Comparative stability of solutions on long-term storage at room temperature (HPLC-MS); assay type: physicochemical; details: for Degradation products observed on storage in aqueous solution: HPLC-MS, storage at room temperature; for Aqueous solubility (in words): dissolving in pure water / need for co-solvents; for Stability of aqueous formulations to storage (in words): room temperature; for Compound A % area: water + 20% MeOH, 1.75 mg/mL; for Example 1 % area: aqueous solution (MilliQ water) 1.7 mg/mL
[5] = aqueous solution 1.2 mg/mL, 40° C., 1d, 1n with Na2HPO3, 1q, 4f, 4g with DMSO and (2-hydroxypropyl)-β-cyclodextrin
[6] = aqueous solution 1.2 mg/mL, room temperature, 1d, 1n with Na2HPO3, 1q, 4f, 4g with DMSO and (2-hydroxypropyl)-β-cyclodextrin

SMILES: CC(C)C[C@H](COP(=O)(O)OC(C)C)Nc1nc(S[C@@H](C)c2ccccc2)nc2nc(N)sc12 [Example 1n, (2R)-2-[(2-Amino-5-{[(1S)-1-phenylethyl]sulfanyl}[1,3]thiazolo[4,5-d]pyrimidin-7-yl)amino]-4-methylpentyl 1-methylethyl hydrogen phosphate]
- % Area by HPLC (60 days) [1, 5]: 100 % Area
- % Area by HPLC (60 days) [1, 6]: 98.2 % Area

SMILES: CC(C)C[C@H](COP(=O)(O)O)Nc1nc(SC(C)c2ccccc2F)nc2nc(N)sc12 (stereo partly drawn) [Example 1b, (2R)-2-[(2-Amino-5-{[1-(2-fluorophenyl)ethyl]sulfanyl}[1,3]thiazolo[4,5-d]pyrimidin-7-yl)amino]-4-methylpentyl dihydrogen phosphate]
- % Area by HPLC (60 days) [1, 5]: 100 % Area
- % Area by HPLC (60 days) [1, 6]: 100 % Area

SMILES: CC(C)C[C@H](CO)Nc1nc(S[C@@H](C)c2ccccc2)nc2nc(N)sc12 [Compound A •HCl, (2R)-2-[(2-amino-5-{[(1S)-1-phenylethyl]sulfanyl}-[1,3]thiazolo[4,5-d]pyrimidin-7-yl)amino]-4-methylpentan-1-ol. HCl]
- solubility at 1 h [2]: 5 µM
- AUC ([3]; iv, 25 mg/kg): 50.1 µM·h
- AUC ([3]; po, 125 mg/kg, PO (oral gavage), 125 mg/kg (284 mol/kg)): 170 µM·h

SMILES: CC(C)C[C@H](COP(=O)(O)O)Nc1nc(S[C@@H](C)c2ccccc2)nc2nc(N)sc12 [Example 1, (2R)-2-[(2-Amino-5-{[(1S)-1-phenylethyl]sulfanyl}[1,3]thiazolo[4,5-d]pyrimidin-7-yl)amino]-4-methylpentyl dihydrogen phosphate]
- % Area by HPLC (60 days) ([1]; Example 1 (no salt), aqueous solution 10 mg/mL, 40° C.): 100 % Area
- solubility at 1 h [2]: 118 µM
- Degradation products observed on storage in aqueous solution [4]: not observed
- Example 1 % area ([4]; RT, 0 days of storage): 99.6 % area
- Example 1 % area ([4]; RT, 4 days of storage): 99.6 % area
- Example 1 % area ([4]; RT, 13 days of storage): 99.6 % area
- Example 1 % area ([4]; RT, 20 days of storage): 99.6 % area
- Example 1 % area ([4]; RT, 40 days of storage): 99.6 % area
- Aqueous solubility (in words) [4]: improved aqueous solubility (no co-solvents required)
- Stability of aqueous formulations to storage (in words) [4]: unexpectedly pronounced stability over Compound A

SMILES: CC(C)C[C@H](COP(=O)(O)O)Nc1nc(S[C@@H](C)c2ccc(Cl)cn2)nc2[nH]c(=O)sc12 [Example 3, (2R)-2-[(5-{[(1S)-1-(5-chloropyridin-2-yl)ethyl]sulfanyl}-2-oxo-2,3-dihydro[1,3]thiazolo[4,5-d]pyrimidin-7-yl)amino]-4-methylpentyl dihydrogen phosphate]
- % Area by HPLC (60 days) [1, 5]: 100 % Area
- % Area by HPLC (60 days) [1, 6]: 99.6 % Area

Continued, in another order:

- % Area by HPLC (60 days) [1, 5]: 82.2 % Area
- % Area by HPLC (60 days) [1, 6]: 92.3 % Area
SMILES: CC(C)C[C@H](CO)Nc1nc(S[C@@H](C)c2ccc(Cl)cn2)nc2c1sc(=O)n2COP(=O)(O)O [Example 2h, [5-{[(1S)-1-(5-Chloropyridin-2-yl)ethyl]sulfanyl}-7-{[(1R)-1-(hydroxymethyl)-3-methylbutyl]amino}-2-oxo[1,3]thiazolo[4,5-d]pyrimidin-3(2H)-yl]methyl dihydrogen phosphate]

- % Area by HPLC (60 days) [1, 5]: 99.7 % Area
- % Area by HPLC (60 days) [1, 6]: 98.0 % Area
SMILES: CC(C)C[C@H](COP(=O)(O)O)Nc1nc(SC(C)c2ccc(Cl)cn2)nc2nc(N)sc12 (stereo partly drawn) [Example 1d, (2R)-2-[(2-Amino-5-{[1-(5-chloropyridin-2-yl)ethyl]sulfanyl}[1,3]thiazolo[4,5-d]pyrimidin-7-yl)amino]-4-methylpentyl dihydrogen phosphate]

- Plasma Compound A AUC ([3]; male CD1 mice, IV, 25 mg/kg): 45.92 µM·h
- AUC ([3]; po, 120 mg/kg, PO (oral gavage), 120 mg/kg (297 mol/kg)): 92.6 µM·h
- Compound A remaining % ([4]; 1.18 mg/mL in water, polyethylene glycol 24% (v/v), RT, 0 days): 98.5%
- Compound A remaining % ([4]; 1.18 mg/mL in water, polyethylene glycol 24% (v/v), RT, 3 days): 97.7%
- Compound A remaining % ([4]; 1.18 mg/mL in water, polyethylene glycol 24% (v/v), RT, 56 days): 28%
- Compound A remaining % ([4]; 1.22 mg/mL in water, polyethylene glycol 24% (v/v), RT, 0 days): 98.6%
- Compound A remaining % ([4]; 1.22 mg/mL in water, polyethylene glycol 24% (v/v), RT, 3 days): 98.0%
- Compound A remaining % ([4]; 1.22 mg/mL in water, polyethylene glycol 24% (v/v), RT, 56 days): 31%
- Compound A remaining % ([4]; 2.25 mg/mL in water, polyethylene glycol 26% (v/v), RT, 0 days): 98.5%
- Compound A remaining % ([4]; 2.25 mg/mL in water, polyethylene glycol 26% (v/v), RT, 3 days): 97.7%
- Compound A remaining % ([4]; 2.25 mg/mL in water, polyethylene glycol 26% (v/v), RT, 56 days): 35%
- Compound A remaining % ([4]; 3.2 mg/mL in water, polyethylene glycol 28% (v/v), ethanol 0, RT, 0 days): 98.4%
- Compound A remaining % ([4]; 3.2 mg/mL in water, polyethylene glycol 28% (v/v), ethanol 0, RT, 14 days): 88.1%
- Compound A remaining % ([4]; 3.2 mg/mL in water, polyethylene glycol 28% (v/v), ethanol 0, RT, 70 days): 60.7%
- Compound A remaining % ([4]; 4.0 mg/mL in water, polyethylene glycol 25% (v/v), ethanol 3% (v/v), RT, 0 days): 98.4%
- Compound A remaining % ([4]; 4.0 mg/mL in water, polyethylene glycol 25% (v/v), ethanol 3% (v/v), RT, 14 days): 92.3%
- Compound A remaining % ([4]; 4.0 mg/mL in water, polyethylene glycol 25% (v/v), ethanol 3% (v/v), RT, 70 days): 75.1%
- Aqueous solubility (in words) [4]: not possible to dissolve
- Stability of aqueous formulations to storage (in words) [4]: unstable to storage at room temperature
- Compound A % area ([4]; RT, 0 days): 98.4% area
- Compound A % area ([4]; RT, 4 days): 96.7% area
SMILES: CC(C)C[C@H](CO)Nc1nc(S[C@@H](C)c2ccccc2)nc2nc(N)sc12 [Compound A, (2R)-2-[(2-amino-5-{[(1S)-1-phenylethyl]thio}[1,3]thiazolo[4,5-d]pyrimidin-7-yl)amino]-4-methylpentan-1-ol]
- Degradation products observed on storage in aqueous solution [4]: the debenzylated thiol and the corresponding disulfide together with phenyl ethanol and minor amounts of styrene
